# Target: PIK3CA (human) (UniProt P42336)
# Assay: Inhibition of PIK3CA Kinase Activity
# PIK3CA (human), sequence (P42336 whole entry, looked up): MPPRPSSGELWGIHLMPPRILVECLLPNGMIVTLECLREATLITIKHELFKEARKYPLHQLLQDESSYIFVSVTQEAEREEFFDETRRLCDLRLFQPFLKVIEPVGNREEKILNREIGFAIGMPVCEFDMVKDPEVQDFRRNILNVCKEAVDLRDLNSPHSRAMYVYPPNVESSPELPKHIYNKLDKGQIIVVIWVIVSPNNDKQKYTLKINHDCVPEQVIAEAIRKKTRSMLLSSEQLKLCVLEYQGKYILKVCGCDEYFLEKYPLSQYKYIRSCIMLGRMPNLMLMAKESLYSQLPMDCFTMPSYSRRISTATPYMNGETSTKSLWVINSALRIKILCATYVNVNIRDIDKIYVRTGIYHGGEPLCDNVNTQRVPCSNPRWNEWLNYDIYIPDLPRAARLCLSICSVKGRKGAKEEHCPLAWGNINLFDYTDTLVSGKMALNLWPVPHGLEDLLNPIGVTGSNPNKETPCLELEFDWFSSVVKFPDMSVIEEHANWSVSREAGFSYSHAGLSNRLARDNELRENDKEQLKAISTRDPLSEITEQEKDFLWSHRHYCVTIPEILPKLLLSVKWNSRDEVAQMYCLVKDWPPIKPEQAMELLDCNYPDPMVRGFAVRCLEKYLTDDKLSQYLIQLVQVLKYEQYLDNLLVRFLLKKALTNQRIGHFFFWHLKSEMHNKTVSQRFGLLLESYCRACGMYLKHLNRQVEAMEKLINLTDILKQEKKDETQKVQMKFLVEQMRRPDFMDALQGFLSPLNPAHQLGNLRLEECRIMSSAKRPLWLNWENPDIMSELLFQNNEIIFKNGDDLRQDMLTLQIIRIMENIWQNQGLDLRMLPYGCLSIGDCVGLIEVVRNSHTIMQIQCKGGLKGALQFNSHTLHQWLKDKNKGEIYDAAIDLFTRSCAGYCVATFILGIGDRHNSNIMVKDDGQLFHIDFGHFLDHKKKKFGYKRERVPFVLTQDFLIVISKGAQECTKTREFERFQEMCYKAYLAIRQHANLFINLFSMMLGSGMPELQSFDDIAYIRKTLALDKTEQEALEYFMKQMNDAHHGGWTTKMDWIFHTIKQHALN
row,Compound,IC50 [nM]
1,Cc1nc2cc(-c3ccc4c(c3)CN(c3nc(CN(C)C)nc(C)c3Cc3ccc(F)cc3)CCO4)ccc2[nH]1,≤ 10
2,CCNc1nc2ncc(-c3ccc4c(c3)CN(c3ccncn3)CCO4)cc2[nH]1,50 to 250
3,COc1ccc2c(N3CCOc4ccc(-c5cnc6sc(NC(C)=O)nc6c5)cc4C3)nc(CN(C)C)nc2c1,10 to 50
4,CC(C)(O)CNS(=O)(=O)c1cc(-c2ccc3c(c2)CN(c2ncnc4c2CC(C)(C)CC4)CCO3)cnc1N,10 to 50
5,COc1cc2ncnc(N3CCOc4ccc(-c5ccc6nc(C)[nH]c6c5)cc4C3)c2cc1Br,50 to 250
6,C[C@@H](CO)CS(=O)(=O)c1cc(-c2ccc3c(c2)CN(c2ncnc4c2CC(C)(C)CC4)CCO3)cnc1N,≤ 10
7,COCCc1c(C)nc(CN(C)C)nc1N1CCOc2ccc(-c3ccc4nc(C)[nH]c4c3)cc2C1,≤ 10
8,C=CCc1c(C)nc(CN(C)C)nc1N1CCOc2ccc(-c3cnc4sc(N)nc4c3)cc2C1,≤ 10
9,COc1ccccc1Cc1c(C)ncnc1N1CCOc2ccc(-c3ccc4nc(C)[nH]c4c3)cc2C1,50 to 250
10,Cc1nc2ncc(-c3ccc4c(c3)CN(c3nc(CNC5CCCC5)nc5c3CC(C)(C)CC5)CCO4)cc2[nH]1,10 to 50
11,COC(=O)Nc1nc2ccc(-c3ccc4c(c3)CN(c3ncnc(C)c3Cc3ccc(F)cc3)CCO4)cc2[nH]1,≤ 10
12,COc1cc2nccc(N3CCOc4ccc(-c5ccc(-c6ncc[nH]6)cc5)cc4C3)c2cc1OC,50 to 250
13,CC1(C)CCc2ncnc(N3CCOc4ccc(-c5cnc6c(c5)OCCN6)cc4C3)c2C1,250 to 1000
14,COc1ccc2c(N3CCOc4ccc(-c5ccc(OC)c(OC)c5)cc4C3)nc(CN(C)C)nc2c1,10 to 50
15,COc1c(OCC2CC2)ccc2c(N3CCOc4ccc(-c5ccc6nc(C)[nH]c6c5)cc4C3)ncnc12,10 to 50
16,CN(C)Cc1nc2ncc(-c3ccc4c(c3)CN(c3ncnc5c3CC(C)(C)CC5)CCO4)cc2[nH]1,250 to 1000
17,C[C@H]1CCc2c(ncnc2N2CCOc3ccc(-c4cnc5nc(C6CC6)[nH]c5c4)cc3C2)C1,10 to 50
18,Cc1nc2ncc(-c3ccc4c(c3)CN(c3nc(CNCCF)nc5c3CC(C)(C)CC5)CCO4)cc2[nH]1,10 to 50
19,CNCc1nc2c(c(N3CCOc4ccc(-c5cnc6nc(C)[nH]c6c5)cc4C3)n1)CC(C)(C)CC2,≤ 10
20,Cc1nc2ccc(-c3ccc4c(c3)CN(c3ncncc3C)CCO4)cc2[nH]1,250 to 1000
21,Cc1nc2ncc(-c3ccc4c(c3)CN(c3nc(CN5CCC(F)(F)C5)nc5c3CC(C)(C)CC5)CCO4)cc2[nH]1,50 to 250
22,Cc1nc2cc(-c3ccc4c(c3)CN(c3nc(CN(C)C)nc(C)c3Br)CCO4)ccc2[nH]1,50 to 250

row,Compound,IC50 [nM]
1,CC1(C)CCc2ncnc(N3CCOc4ccc(-c5cnc6nc(N)[nH]c6c5)cc4C3)c2C1,≤ 10
2,Cc1nc2cc(-c3ccc4c(c3)CN(c3nc(CNCCF)nc(C)c3C(C)C)CCO4)ccc2[nH]1,10 to 50
3,COc1ccc2c(N3CCOc4ccc(-c5cnc6[nH]c(C)nc6c5)cc4C3)nc(C)nc2c1,≤ 10
4,Cc1nc2c(c(N3CCOc4ccc(-c5cnc(N)c(S(=O)(=O)N(C)C)c5)cc4C3)n1)CC(C)(C)CC2,50 to 250
5,Cc1nc(N)nc(N2CCOc3ccc(-c4ccc5[nH]cnc5c4)cc3C2)c1Cc1ccc(F)cc1,≤ 10
6,c1ccc2c(N3CCOc4ccc(-c5ccc6nccnc6c5)cc4C3)ccnc2c1,50 to 250
7,CC1(C)CCc2ncnc(N3CCOc4ccc(-c5cnc(N)c(S(=O)(=O)N6CCC(N)CC6)c5)cc4C3)c2C1,10 to 50
8,COC1Cc2nc(CN(C)C)nc(N3CCOc4ccc(-c5cnc6nc(C)[nH]c6c5)cc4C3)c2CC1(C)C (centres undefined),≤ 10
9,CCN1CCc2c(ncnc2N2CCOc3ccc(-c4ccc5nc(C)[nH]c5c4)cc3C2)C1,250 to 1000
10,CCNc1nc2ccc(-c3ccc4c(c3)CN(c3nc(C)nc5ccccc35)CCO4)cc2[nH]1,10 to 50
11,Cc1nc2cc(-c3ccc4c(c3)CN(c3ncnc5c3CC3(CC5)CC3)CCO4)cnc2[nH]1,10 to 50
12,Cc1nc2ncc(-c3ccc4c(c3)CN(c3ncnc(N5CCOCC5)c3C)CCO4)cc2[nH]1,50 to 250
13,Cc1nc2ccc(-c3ccc4c(c3)CN(c3ncnc(C)c3Cc3ccc(Cl)c(N(C)C)c3)CCO4)cc2[nH]1,10 to 50
14,Cc1nc2c(C)cc(-c3ccc4c(c3)CN(c3ncnc5cccnc35)CCO4)cc2[nH]1,50 to 250
15,CCc1c(C)nc(CN(C)C)nc1N1CCOc2ccc(-c3cnc4[nH]c(C)nc4c3)cc2C1,≤ 10
16,COCCOCc1nc2c(c(N3CCOc4ccc(-c5ccc6nc(C)[nH]c6c5)cc4C3)n1)CC(C)(C)CC2,50 to 250
17,Cc1nc2cc(-c3ccc4c(c3)CN(c3nc(CN(C)C)nc(C)c3C(C)C)CCO4)cnc2[nH]1,≤ 10
18,Cc1nc2ccc(-c3ccc4c(c3)CN(c3ncnc5ccc(S(C)(=O)=O)cc35)CCO4)cc2[nH]1,250 to 1000
19,Cc1ncnc(N2CCOc3ccc(-c4ccc5nc(N)sc5n4)cc3C2)c1Cc1ccc(F)cc1,50 to 250
20,COc1cc2ncnc(N3CCOc4ccc(-c5ccc6nc(C)[nH]c6c5)cc4C3)c2cc1Cl,10 to 50
21,COc1ccc(-c2ccc3c(c2)CN(c2nc(CN(C)C)nc4c2CC(C)(C)CC4)CCO3)cc1S(C)(=O)=O,10 to 50
22,Cc1nc2c(F)c(-c3ccc4c(c3)CN(c3nc(CN(C)C)nc5c3CC(C)(C)CC5)CCO4)ccc2[nH]1,10 to 50
